Patent US4874856A, “3-(substituted)propenyl-7-(aminothiazolylacetamido) ceph-3-em-4-carboxylic acids and esters thereof” (Bristol-Myers Company, priority 1987, dated 1989)
In brackets after ≈: the same amount, converted by molar mass. Read-outs that look alike come from different tables or passages of the source.

Key:
[1] = test system: CETresistant E. coli (3) and K. pneumoniae (2); assay: In vitro MIC, two-fold serial agar dilution in Mueller-Hinton agar, GnIb strains; format: cell-based; conditions: Escherichia coli, 5 strains, read-out: Geometric mean of MIC, GnIb
Description: (§1) The in vitro antibacterial activity of the parent cephalosporanic acids of Formula I wherein R^4 is hydrogen is shown in Table 1 in terms of geometric mean of the Minimum Inhibitory Concentrations (MIC's) which were determined by the two-fold serial agar dilution method in Mueller-Hinton agar against 25 strains of test organisms in five groups.
GnIb: CETresistant E. coli (3) and K. pneumoniae (2)

PCresistant S. aureus = assay: In vitro MIC, two-fold serial agar dilution in Mueller-Hinton agar, GpIb strains; format: cell-based; conditions: Staphylococcus aureus, 5 strains, read-out: Geometric mean of MIC, GpIb
Description: as §1
GpIb: PCresistant S. aureus

[2] = test system: Cephalothin(CET)sensitive E. coli (2 strains), K. pneumoniae (1) an P. mirabilis (2); assay: In vitro MIC, two-fold serial agar dilution in Mueller-Hinton agar, GnIa strains; format: cell-based; conditions: 5 strains, read-out: Geometric mean of MIC, GnIa
Description: as §1
GnIa: Cephalothin(CET)sensitive E. coli (2 strains), K. pneumoniae (1) an […]

[3] = Mouse blood levels after oral administration (Table 2); format: in vivo
[4] = test system: Penicillin(PC)sensitive S. aureus; assay: In vitro MIC, two-fold serial agar dilution in Mueller-Hinton agar, Gp-Ia strains; format: cell-based; conditions: Staphylococcus aureus; GpIa, 5 strains; read-out: Geometric mean of MIC, GpIa
Description: as §1
Gp-Ia: Penicillin(PC)sensitive S. aureus

[5] = test system: M. morcanii (1), E. cloacae (2) and S. marcescens (2); assay: In vitro MIC, two-fold serial agar dilution in Mueller-Hinton agar, GnII strains; format: cell-based; conditions: Enterobacter cloacae, read-out: Geometric mean of MIC, GnII
Description: as §1
GnII: M. morcanii (1), E. cloacae (2) and S. marcescens (2)

[6] = Bioavailability in mouse as reflected by blood levels (Table 5); format: in vivo; conditions: oral, Table 5 (definition given as drawing 18)
Excerpt: (§2) Tables 4 and 5 show the in vivo activity of pro-drug esters 88-92 including the bioavailability thereof as reflected by blood levels.

E. coli Juhl = assay: Evaluation in vivo (mouse), oral PD50 against E. coli Juhl; conditions: Escherichia coli
Excerpt: as §2

S. aureus Smith = assay: Evaluation in vivo (mouse), oral PD50 against S. aureus Smith; conditions: Staphylococcus aureus
Excerpt: as §2

[7] = Evaluation in vivo (mouse), blood concentration (Table 4); conditions: po, treated orally, single 100 mg/kg dose
Description: as §2
*treated orally, single 100 mg/kg. dose

[8] = mouse blood, 20 mg/kg, read-out: AUC
[9] = mouse blood, 20 mg/kg, read-out: T 1/2 (converted)
[10] = mouse blood, 100 mg/kg, read-out: AUC
[11] = mouse blood, 100 mg/kg, read-out: Cmax
[12] = mouse blood, 100 mg/kg, read-out: T 1/2 (converted)

N[C@@H](C(=O)N[C@@H]1C(=O)N2C(C(=O)O)=C(Cl)CS[C@H]12)c1ccccc1 [Cefaclor, reference compound]
MIC [1]: 11 mg/L (≈ 29.9 µM) | MIC (PCresistant S. aureus): 4.7 mg/L (≈ 12.8 µM) | MIC [2]: 0.92 mg/L (≈ 2.5 µM) | AUC ([3]; mouse, in vivo, 20 mg/kg): 8.9 µg·h/mL | half-life ([3]; mouse, in vivo, 20 mg/kg): 0.91 h | AUC ([3]; mouse, in vivo, 100 mg/kg): 35 µg·h/mL | half-life ([3]; mouse, in vivo, 100 mg/kg): 1.2 h | MIC [4]: 0.7 mg/L (≈ 1.9 µM) | MIC [5]: > 100 mg/L

CC1=C(C(=O)O)N2C(=O)[C@@H](NC(=O)[C@H](N)c3ccc(O)cc3)[C@H]2SC1 [Cefadroxil, reference compound]
MIC [1]: 17 mg/L (≈ 46.8 µM) | MIC (PCresistant S. aureus): 3.6 mg/L (≈ 9.91 µM) | MIC [2]: 8.3 mg/L (≈ 22.8 µM) | AUC [3, 8]: 16 µg·h/mL | half-life [3, 9]: 1.4 h | AUC [3, 10]: 69 µg·h/mL | Cmax [3, 11]: 57 µg/mL | half-life [3, 12]: 1.6 h | MIC [4]: 1.4 mg/L (≈ 3.85 µM) | MIC [5]: > 100 mg/L

C=CC1=C(C(=O)O)N2C(=O)[C@@H](NC(=O)/C(=N\OCC(=O)O)c3csc(N)n3)[C@H]2SC1 [Cefixime, cefixime]
MIC [1]: 3.1 mg/L (≈ 6.84 µM) | MIC (PCresistant S. aureus): 12.5 mg/L (≈ 27.6 µM) | MIC [2]: 0.016 mg/L (≈ 0.0353 µM) | AUC [3, 8]: 25 µg·h/mL | Cmax ([3]; mouse blood, 20 mg/kg, read-out: Cmax): 10 µg/mL | half-life [3, 9]: 1.5 h | AUC [3, 10]: 75 µg·h/mL | Cmax [3, 11]: 28 µg/mL | half-life [3, 12]: 1.6 h | MIC [4]: 4.7 mg/L (≈ 10.4 µM) | MIC [5]: 3.2 mg/L (≈ 7.06 µM)

C/C=C\C1=C(C(=O)OC(C)OC(C)=O)N2C(=O)[C@@H](NC(=O)/C(=N\O)c3csc(N)n3)[C@H]2SC1 (stereo partly drawn) [Compound 30, 1-acetoxyethyl 7β-[(Z)-2-(2-aminothiazol-4-yl)-2-(hydroxyimino)acetamido]-3-[(Z)-prop-1-en-1-yl]-3-cephem-4-carboxylate]
bioavailability [6]: 76% | ED50 (E. coli Juhl; Table 5): 1.1 mg/kg | AUC ([3]; mouse, in vivo, 20 mg/kg): 16 µg·h/mL | Cmax ([3]; mouse, in vivo, 20 mg/kg): 9.9 µg/mL | half-life ([3]; mouse, in vivo, 20 mg/kg): 1 h | AUC ([3]; mouse, in vivo, 100 mg/kg): 61 µg·h/mL | Cmax ([3]; mouse, in vivo, 100 mg/kg): 36 µg/mL | half-life ([3]; mouse, in vivo, 100 mg/kg): 1.3 h | ED50 (S. aureus Smith; Table 5): 2 mg/kg

C/C=C/C1=C(C(=O)O)N2C(=O)[C@@H](NC(=O)/C(=N\O)c3csc(N)n3)[C@H]2SC1 [Compound 33, 7β-[(Z)-2-(2-aminothiazol-4-yl)-2-(hydroxyimino)acetamido]-3-[(E)-prop-1-en-1-yl]-3-cephem-4-carboxylic acid]
MIC [1]: 1.4 mg/L (≈ 3.42 µM) | MIC (PCresistant S. aureus): 0.61 mg/L (≈ 1.49 µM) | MIC [2]: 0.46 mg/L (≈ 1.12 µM) | MIC [4]: 0.23 mg/L (≈ 0.562 µM) | MIC [5]: 22 mg/L (≈ 53.7 µM)

CC(=O)OC/C=C\C1=C(C(=O)O)N2C(=O)[C@@H](NC(=O)/C(=N\O)c3csc(N)n3)[C@H]2SC1 [Compound 37, 7β-[(Z)-2-(2-aminothiazol-4-yl)-2-(hydroxyimino)acetamido]-3-[(Z)-3-acetoxyprop-1-en-1-yl]-3-cephem-4-carboxylic acid]
MIC [1]: 0.1 mg/L (≈ 0.214 µM) | MIC (PCresistant S. aureus): 0.4 mg/L (≈ 0.856 µM) | MIC [2]: 0.025 mg/L (≈ 0.0535 µM) | MIC [4]: 0.17 mg/L (≈ 0.364 µM) | MIC [5]: 1.1 mg/L (≈ 2.35 µM)

C/C=C\C1=C(C(=O)O)N2C(=O)[C@@H](NC(=O)/C(=N\OC(C)=O)c3csc(N)n3)[C@H]2SC1 [Compound 53, 7β-[(Z)-2-(2-aminothiazol-4-yl)-2-(acetoxyimino)acetamido]-3-[(Z)-prop-1-en-1-yl]-3-cephem-4-carboxylic acid]
MIC [1]: 0.26 mg/L (≈ 0.576 µM) | MIC (PCresistant S. aureus): 0.4 mg/L (≈ 0.886 µM) | MIC [2]: 0.057 mg/L (≈ 0.126 µM) | MIC [4]: 0.17 mg/L (≈ 0.377 µM) | MIC [5]: 3.6 mg/L (≈ 7.97 µM)

C/C=C\C1=C(C(=O)OC(C)OC(C)=O)N2C(=O)[C@@H](NC(=O)/C(=N\OC(C)=O)c3csc(N)n3)[C@H]2SC1 (stereo partly drawn) [Compound 55, 1-acetoxyethyl 7β-[(Z)-2-(2-aminothiazol-4-yl)-2-(acetoxyimino)acetamido]-3-[(Z)-prop-1-en-1-yl]-3-cephem-4-carboxylate]
AUC ([3]; mouse, in vivo, 20 mg/kg): 9.4 µg·h/mL | Cmax ([3]; mouse, in vivo, 20 mg/kg): 7.6 µg/mL | half-life ([3]; mouse, in vivo, 20 mg/kg): 0.8 h | AUC ([3]; mouse, in vivo, 100 mg/kg): 40 µg·h/mL | Cmax ([3]; mouse, in vivo, 100 mg/kg): 27 µg/mL | half-life ([3]; mouse, in vivo, 100 mg/kg): 0.8 h

C/C=C\C1=C(C(=O)OCc2oc(=O)oc2C)N2C(=O)[C@@H](NC(=O)/C(=N\O)c3csc(N)n3)[C@H]2SC1 [Compound 88, (5-methyl-2-oxo-1,3-dioxolen-4-yl)methyl 7β-[(Z)-2-(2-aminothiazol-4-yl)-2-(hydroxyimino)-acetamido]-3-[(Z)-prop-1-en-1-yl]-3-cephem-4-carboxylate]
AUC [7]: 44 µg·h/mL | Cmax [7]: 16 µg/mL | ED50 (E. coli Juhl; Table 4): 2.7 mg/kg | ED50 (S. aureus Smith; Table 4): 1.1 mg/kg

C/C=C\C1=C(C(=O)OC(C)OC(=O)OCC)N2C(=O)[C@@H](NC(=O)/C(=N\O)c3csc(N)n3)[C@H]2SC1 (stereo partly drawn) [Compound 89, 1-(ethoxycarbonyloxy)ethyl 7β-[(Z)-2-(2-aminothiazol-4-yl)-2-(hydroxyimino)-acetamido]-3-[(Z)-prop-1-en-1-yl]-3-cephem-4-carboxylate]
AUC [7]: 74 µg·h/mL | Cmax [7]: 32 µg/mL | ED50 (E. coli Juhl; Table 4): 0.67 mg/kg | ED50 (S. aureus Smith; Table 4): 0.77 mg/kg

C/C=C\C1=C(C(=O)OC(C)OC(=O)OC2CCCCC2)N2C(=O)C(NC(=O)/C(=N\O)c3csc(N)n3)[C@H]2SC1 (some centres unmarked) [Compound 90, 1-(cyclohexyloxycarbonyloxy)ethyl 7-[(Z)-2-(2-aminothiazol-4-yl)-2-(hydroxyimino)acetamido]-3-[(Z)-1-propenyl]-3-cephem-4-carboxylate]
bioavailability [6]: 78% | ED50 (E. coli Juhl; Table 5): 1.5 mg/kg | ED50 (S. aureus Smith; Table 5): 3.2 mg/kg

C/C=C\C1=C(C(=O)OC(C)OC(=O)C(C)(C)C)N2C(=O)C(NC(=O)/C(=N\O)c3csc(N)n3)[C@H]2SC1 (some centres unmarked) [Compound 91, 1-(pivaloyloxy)ethyl 7-[(Z)-2-(2-aminothiazol-4-yl)-2-(hydroxyimino)acetamido]-3-[(Z)-1-propenyl]-3-cephem-4-carboxylate]
bioavailability [6]: 60% | ED50 (E. coli Juhl; Table 5): 3.5 mg/kg | ED50 (S. aureus Smith; Table 5): 2 mg/kg

C/C=C\C1=C(C(=O)OC(C)OC(=O)CC2CCCCC2)N2C(=O)C(NC(=O)/C(=N\O)c3csc(N)n3)[C@H]2SC1 (some centres unmarked) [Compound 92, 1-(cyclohexylacetoxy)ethyl 7-[(Z)-2-(2-aminothiazol-4-yl)-2-(hydroxyimino)acetamido]-3-[(Z)-1-propenyl]-3-cephem-4-carboxylate]
bioavailability [6]: 87% | ED50 (E. coli Juhl; Table 5): 1.4 mg/kg | ED50 (S. aureus Smith; Table 5): 2.9 mg/kg
